Measured values as given in patent publication US20220016080A1, “COMPOUNDS THAT SELECTIVELY AND EFFECTIVELY INHIBIT HAKAI-MEDIATED UBIQUITINATION, AS ANTI-CANCER DRUGS” (FUNDACIÓN PROFESOR NOVOA SANTOS, priority 2018, published 2022).

Assays:
Type in all cases: cell-based
[1] = test system: HT-29 colon tumour cell line; experiment: MTT cell viability assay, HT29; details: 72 h, analogues at 50-500 μM
Procedure: (§1) For cytotoxicity assays, 1×10^4 cells were seeded per well into a 96-well plate. After 24 h cells were treated with the indicated inhibitors for 72 h and a MTT colorimetric cell viability assay was performed following manufacturer's instructions (Sigma Aldrich, St Louis, Mo.). Absorbance was measured at 570 and 630 nm using a Multiskan Plus Reader (Nanoquant Infinite M200 Tecan Trading AG, Switzerland). Dose-response curves were designed with Graph Pad Prism Software and the half-maximal inhibitory concentration (IC50) values were calculated. Represented data are the mean±SEM of at least three independent experiments with six replicates per condition.

[2] = target: T1, E3 ubiquitin-ligase Hakai (Mus musculus, UniProt Q9JIY2); experiment: Hakai-dependent ubiquitination assay in 293T cells transfected with Flag-Hakai, v-Src and HA-ubiquitin; details: 293T cells transfected with Src, treated 36 h, DMSO as control
T1 construct: expressed in transfected cells; host or cells: HEK293T (293) cells, co-transfected with v-Src and HA-ubiquitin, and in A3 also with myc-E-cadherin
T1 sequence (Q9JIY2 1-491): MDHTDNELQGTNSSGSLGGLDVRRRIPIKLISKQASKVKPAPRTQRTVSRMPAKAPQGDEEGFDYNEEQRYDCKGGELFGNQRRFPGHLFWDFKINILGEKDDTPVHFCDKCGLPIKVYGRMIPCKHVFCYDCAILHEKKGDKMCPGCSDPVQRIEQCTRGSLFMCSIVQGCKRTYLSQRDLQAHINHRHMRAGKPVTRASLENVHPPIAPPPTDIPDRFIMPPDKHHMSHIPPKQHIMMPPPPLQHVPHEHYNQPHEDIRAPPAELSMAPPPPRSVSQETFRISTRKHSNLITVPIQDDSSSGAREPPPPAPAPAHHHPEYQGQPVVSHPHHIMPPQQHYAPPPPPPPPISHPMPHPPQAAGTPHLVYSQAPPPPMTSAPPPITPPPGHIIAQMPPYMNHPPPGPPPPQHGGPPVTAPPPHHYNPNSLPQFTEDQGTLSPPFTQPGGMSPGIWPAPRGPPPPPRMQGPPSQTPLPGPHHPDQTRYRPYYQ
Procedure: For ubiquitination assays, 750.000 HEK293T cells were seeded in 6-well cell culture plates and after 24 h were transfected with 0.25 μg Src, 0.75 μg Flag-Hakai, and 0.5 μg HA-ubiquitin with Lipofectamin 2000 (Invitrogen, UK). Six hours after transfection cells were treated with indicated concentrations of Hakin-1, Hakin-5 or the rest of the analogues tested for 36 h. Whole cell extracts were obtained in lysis buffer (20 mM Tris-HCl pH 7.5, 150 mM NaCl and 1% Triton X-100) containing 10 μg/ml leupeptin, 10 μg/ml aprotinin and 1 mM phenylmethanesulphonyl fluoride (PMSF), supplemented with 10 mM N-ethylmaleimide. Cells were harvested and subjected to western blotting using anti-HA antibody to detect ubiquitination.

[3] = test system: HT-29 cells; experiment: Western blotting of EMT markers, HT-29; details: 48 h
Procedure: (§2) For western blot analysis, cells were treated with the indicated inhibitors for 48 h and the whole cell extracts were obtained as described previously. Twenty micrograms of lysates were resolved on a 10% polyacrilamide SDS-PAGE followed by western blot analysis performed as previously described. For immunofluorescence assays cells were grown for 24 h on glass coverslips and treated with the indicated inhibitors for 48 h. Cells were fixed with 4% PFA for 15 min, permeabilized with 0.5% […] and incubated with E-cadherin antibody for 2 h. Coverslips were incubated with fluorescein-tagged secondary antibody (Dakopatts, Sweden) for […]. Finally coverslips were mounted with ProLong Gold antifade reagent (LifeTech, UK) and images were taken in epifluorescence microscope (Olympus) using 40× objective.

[4] = test system: normal epithelial MDCK cell line; experiment: MTT cell viability assay, MDCK; details: normal epithelial MDCK compared to Hakai-MDCK; 72 h
Procedure: as §1

[5] = test system: HT-29 cells; experiment: Immunofluorescence of E-cadherin, HT-29; details: 48 h
Procedure: as §2

[6] = test system: Hakai-transformed MDCK cells; experiment: Phase-contrast cell phenotype, Hakai-MDCK
Procedure: MDCK, HEK293T, HepG2, MCF7 and ACHN cells were cultured in Dulbecco's Modified Eagles Medium (DMEM). MDCK stably expressing Hakai cells (Hakai-MDCK) were previously reported and were growth in DMEM with G418 (800 μg/ml). […] LoVo and PC-3 cells were cultured in F-12K Medium (Kaighn's Modification of Ham's F-12 Medium) and HT-29 cells in McCoy's 5a Medium Modified. 5637 cells were cultured in RPMI medium. All culture media were supplemented with 1% penicillin/streptomycin and 10% of heat-inactivated fetal bovine serum (FBS) at 37° C. in a humidified incubator with 5% CO2. Cells were monthly tested for mycoplasma contamination and used only for 1-3 months after defrosted. LoVo and HT29 cells were authenticated with the StemElite ID system (Promega). For phase-contrast images, culture cells were photographed with a Nikon Eclipse-TI microscope.

[7] = test system: LoVo cells; experiment: BrdU proliferation assay, LoVo; details: 48 h
Procedure: (§3) For BrdU assays, 1×10^4 of indicated cells were plated per well into a 96-well plate. After 24 h, cells were treated with the indicated inhibitors for 48 h. Three independent experiments were plated with six replicates per each condition. Cells were treated with […] BrdU for 2 h. BrdU incorporation into newly synthesized DNA was measured using a cell proliferation colorimetric immunoassay kit according to the manufacturer's instructions (Roche, Switzerland). Results are expressed as mean±S.D. Results are represented as percentage of positive cells (mean±S.D) of three independent experiments.

[8] = test system: HT29 cells; experiment: BrdU proliferation assay, HT29; details: 48 h
Procedure: as §3

[9] = test system: Hakai-MDCK cell lines (clone 4 and clone 11); experiment: MTT cell viability assay, Hakai-MDCK; details: both clones of Hakai-MDCK compared to MDCK; 72 h
Procedure: as §1

SMILES | cytotoxicity effect (cell viability, MTT) [1] | ubiquitination mediated by Hakai (western blotting, anti-HA) [2] | E-cadherin levels (western blotting) [3] | sensitivity to treatment (cell viability, MTT) [4] | E-cadherin levels at cell-cell contacts (immunofluorescence) [5] | mesenchymal phenotype (phase contrast) [6] | cell proliferation (BrdU) [7] | cell proliferation (BrdU) [8] | sensitivity to treatment (cell viability, MTT) [9]
O=C(O)c1ccc(-n2nnnc2SCC(=O)c2ccc(Cl)s2)cc1 [Hakin A-23] | important inhibitory response | inhibitory effect of Hakai activity |  |  |  |  |  |  | 
CC(/C=C/C(=O)O)=C\CC(O)/C(C)=C/CCC(C)C(C)O (stereo not shown) [Hakin-5, (2E,4E,8E)-7,13-Dihydroxy-4,8,12-trimethyl-2,4,8-tetradecatrienoic acid, reference compound] |  | no effect was detected | no effect | more resistant | no effect | induction of an epithelial phenotype | no effect was seen | no effect was seen | more sensitive
